{"source": "patent US20250387360A1", "about": "“Methods and Compositions for Treatment of Addiction” (University of Connecticut, priority 2024, published 2025)", "assay_type_in_all_cases": "in vivo, mouse", "key": {"C57BL/6J mice": {"test_system": "C57BL/6J mice", "test": "Open field activity test (anxiety-like behavior)", "settings": "after 10 days supplementation, 10 min exploration, n=10 mice/group", "experimental": "The open field activity test was conducted to assess the impact of sodium valerate supplementation on exploratory and anxiety-like behavior. This test is a widely used method for analyzing locomotor ability and anxiety-related emotional behaviors in C57BL/6J mice. The open field activity chamber, constructed from white Plexiglass and illuminated with daylight, had dimensions of 37.5 cm height×40 cm length×40 cm width. General locomotor activity was recorded for 10 min by an overhead camera and analyzed using an automated video tracking system (ANY-maze v.4.6, Stoelting, IL, U.S.A, RRID:SCR_014289). The primary variables of interest included the total distance traveled (cm), the number of entries in the center area (20 cm length×20 cm width), and the percentage of time spent in the center area of the open field.\nThe effects of sodium valerate and NaCl was examined on anxiety-like behavior (n=10 mice/group) after 10 days of supplementation by open-field activity test."}, "GABA levels": {"test_system": "GABA levels", "test": "GABA ELISA in stool, amygdala and plasma after DID", "settings": "10 days supplementation following DID, vs NaCl", "experimental": "GABA levels in plasma, stool, and amygdala samples were determined using an ELISA kit (LDN, Labor Diagnostika Nord, Nordhorn, Germany) following the manufacturer's instructions. Plasma samples were used directly without any additional preparation. For stool and amygdala, samples, they were first thawed and then homogenized in a solution consisting of 0.01N HCl (Thermo Fisher Scientific, MA, U.S.A), ImM EDTA (Thermo Fisher Scientific, MA, U.S.A), and 4 mM sodium metabisulfite (Thermo Fisher Scientific, MA, U.S.A). After homogenization, the samples underwent centrifugation at 3000×g for 5 minutes at 4° C. before GABA estimation. To summarize the assay procedure, plasma, homogenized stool, and amygdala samples, and the kit's standards were all processed on an extraction plate. They were subsequently derivatized using an equalizing reagent and subjected to a standard competitive ELISA conducted in GABA-coated 96-well microtiter strips. The optical density (OD) of the solution within the wells was rapidly read at 450 nm using a 96-well plate reader (iMark™ Microplate Absorbance Reader; Biorad, CA, U.S.A, RRID:SCR_023799). The OD data was employed to determine the GABA concentration via a standard curve.\nThe levels of GABA in the amygdala were measured next, stool, and blood of the mice that underwent the DID paradigm, comparing those supplemented with sodium valerate to those supplemented with NaCl."}, "gut microbiome": {"test_system": "gut microbiome", "test": "16S rRNA sequencing of stool and gut-brain module analysis", "settings": "stool", "description": "Microbial genomic DNA extraction from mouse stool samples was carried out using the Quick-DNA Fecal/Soil Microbe 96 Kit (Zymo Research, CA, U.S.A) following the manufacturer's protocols. The hypervariable region V4 of the bacterial 16S rRNA gene, 515F (5′-[sequence]-3′ (SEQ ID NO: 1)) and 806R (5′-[sequence]-3′ (SEQ ID NO: 2)) was amplified and sequenced on the Illumina MiSeq platform (2×250 bp) (Illumina, CA, U.S.A). The raw sequencing reads were processed via the DADA2 V1.16 (RRID:SCR_023519) data processing pipeline to generate amplicon sequence variants (ASVs). Taxonomic assignments were made using the Silva database V138.1 (RRID:SCR_006423), with a classification confidence threshold set at p<0.5 for assigning unclassified taxa at their respective taxonomical levels. PCR negative controls and extraction controls for DNA extraction and sequencing were included in the analysis. […] Sequencing reads from all the samples were rarified to 10,000 reads per sample. […] All of the microbiome analysis was done in R.\n16S rRNA gene sequencing of stool samples collected before and after sodium valerate treatment (n=7 mice/group) was performed. […] Permutational multivariate analysis of variance (PERMANOVA) tests were performed on CLR-transformed data to test for beta-diversity differences between sodium valerate and NaCl-supplemented groups (n=14 mice/group)."}, "male mice (C57BL/6J)": {"test_system": "male mice (C57BL/6J)", "test": "Six-week repeated DID protocol", "experimental": "In this study, the impact of sodium valerate treatment on ethanol intake and blood ethanol concentration (BEC) was assessed using a six-week Drinking in the Dark (DID) protocol in male mice (C57BL/6J). All mice (n=30) were single-housed and had ad libitum access to food and their respective drinking water. Water bottles were removed 30 minutes prior to and throughout each DID session. During the two-week baseline period, all mice underwent a standardized DID paradigm consisting of a 4-day cycle each week: 2-hour access to 20% ethanol on days 1-3, followed by a 4-hour session on day 4. Starting in week three, mice were randomly assigned to one of three groups (10 mice per group): (1) Valerate-i.p., which received intraperitoneal injections of sodium valerate (200 mg/kg body weight) 30 minutes before each DID session; (2) Valerate-drinking water, which received 200 mM sodium valerate in drinking water for 30 minutes before to each DID session; and (3) Control, which received no valerate treatment. Ethanol consumption was evaluated on day 4 of each week (Wecks 1-6), and BEC was measured on day 4 of weeks 2, 4, and 6."}}}
{"smiles": "CCCCC(=O)[O-].[Na+]", "note": "[sodium valerate]", "values": [{"measurement": "distance travelled", "setting": "C57BL/6J mice", "result": "did not lead to a significant change"}, {"measurement": "number of entries in center (mean±SD)", "setting": "C57BL/6J mice; p=0.01 vs NaCl", "result": "57.50±5.48"}, {"measurement": "percentage of time spent in center area (mean±SD)", "setting": "C57BL/6J mice; p=0.03 vs NaCl", "result": "15.29±4.82"}, {"measurement": "GABA levels in plasma", "setting": "GABA levels; n=6 mice/group", "result": "not significant"}, {"measurement": "GABA levels in stool", "setting": "GABA levels; p=0.0001", "result": "elevated"}, {"measurement": "GABA levels in the amygdala", "setting": "GABA levels; p=0.01", "result": "elevated"}, {"measurement": "abundance of Ileibacterium genera", "setting": "gut microbiome; 10 days supplementation, adjusted p=0.24, unadjusted p=0.004", "result": "increase in abundance"}, {"measurement": "beta-diversity between sodium valerate and NaCl groups", "setting": "gut microbiome; after 10 days of supplementation, PERMANOVA/PCA", "result": "increased dissimilarity"}, {"measurement": "Dubosiella abundance, log2Fold change", "setting": "gut microbiome; after 10 days supplementation, DESeq2, adjusted p=9.46E-5", "result": 7.84}, {"measurement": "ethanol consumption week 5, Valerate-drinking water", "setting": "male mice (C57BL/6J); 200 mM in drinking water for 30 min before each DID session from week 3, n=10, p<0.05 vs control", "result": "significantly reduced"}, {"measurement": "BEC week 6, Valerate-drinking water", "setting": "male mice (C57BL/6J); 200 mM in drinking water for 30 min before each DID session, p<0.01 vs control", "result": "significant reductions"}, {"measurement": "ethanol consumption week 5, Valerate-i.p.", "setting": "male mice (C57BL/6J); 200 mg/kg i.p. 30 min before each DID session from week 3, n=10, p<0.01 vs control", "result": "significantly reduced"}, {"measurement": "BEC week 6, Valerate-i.p.", "setting": "male mice (C57BL/6J); 200 mg/kg i.p. 30 min before each DID session, p<0.01 vs control", "result": "significant reductions"}, {"measurement": "ethanol consumption week 6, Valerate-i.p.", "setting": "male mice (C57BL/6J); 200 mg/kg i.p. 30 min before each DID session, p<0.1 vs control", "result": "trend toward reduced ethanol consumption"}, {"measurement": "effects during the initial weeks of treatment", "setting": "male mice (C57BL/6J); both valerate groups", "result": "no significant effects"}]}
